The kinase profiling compilation of Christmann-Franck et al. (2016)

Key:
Assay in all cases: radiometric filter-binding kinase assay
AURKB (human) = AURKB (human) (UniProt Q96GD4)
CDK2 CCNA2 (human) = CDK2 CCNA2 (human) (UniProt P20248+P24941)
CHEK2 (human) = CHEK2 (human) (UniProt O96017)
CSK (human) = CSK (human) (UniProt P41240)
CSNK2A1 (human) = CSNK2A1 (human) (UniProt P68400)
DAPK1 (human) = DAPK1 (human) (UniProt P53355)
EEF2K (human) = EEF2K (human) (UniProt O00418)
EPHB3 (human) = EPHB3 (human) (UniProt P54753)
ERBB4 (human) = ERBB4 (human) (UniProt Q15303)
FGFR1 (human) = FGFR1 (human) (UniProt P11362)
GSK3B (human) = GSK3B (human) (UniProt P49841)
Chain of GSK3B (human) (P49841 whole entry, looked up): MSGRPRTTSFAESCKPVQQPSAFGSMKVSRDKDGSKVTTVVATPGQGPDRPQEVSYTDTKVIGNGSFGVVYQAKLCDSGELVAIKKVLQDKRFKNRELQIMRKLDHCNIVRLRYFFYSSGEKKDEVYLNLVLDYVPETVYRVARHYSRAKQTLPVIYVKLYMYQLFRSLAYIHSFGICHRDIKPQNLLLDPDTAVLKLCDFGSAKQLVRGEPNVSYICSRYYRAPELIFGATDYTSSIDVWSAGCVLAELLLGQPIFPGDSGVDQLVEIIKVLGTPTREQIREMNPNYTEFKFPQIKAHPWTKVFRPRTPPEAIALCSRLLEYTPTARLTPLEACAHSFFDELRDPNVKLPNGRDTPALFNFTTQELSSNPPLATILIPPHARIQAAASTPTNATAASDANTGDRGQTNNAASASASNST

IKBKB (human) = IKBKB (human) (UniProt O14920)
INSRR (human) = INSRR (human) (UniProt P14616)
LCK (mouse) = settings: accession and sequence are those of the human protein
MAP2K2 (human) = MAP2K2 (human) (UniProt P36507)
Chain of MAP2K2 (human) (P36507 whole entry, looked up): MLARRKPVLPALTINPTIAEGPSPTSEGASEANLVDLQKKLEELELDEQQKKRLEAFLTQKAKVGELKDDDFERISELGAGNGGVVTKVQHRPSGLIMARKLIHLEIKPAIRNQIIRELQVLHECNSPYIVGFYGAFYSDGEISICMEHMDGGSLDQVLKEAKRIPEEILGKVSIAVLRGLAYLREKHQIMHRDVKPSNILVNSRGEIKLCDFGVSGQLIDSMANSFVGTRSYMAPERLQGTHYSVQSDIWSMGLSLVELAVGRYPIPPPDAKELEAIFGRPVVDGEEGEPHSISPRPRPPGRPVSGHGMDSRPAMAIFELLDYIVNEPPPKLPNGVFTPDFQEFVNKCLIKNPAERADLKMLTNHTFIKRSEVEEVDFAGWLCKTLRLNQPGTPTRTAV

MAP3K9 (human) = MAP3K9 (human) (UniProt P80192)
MAPK1 (human) = MAPK1 (human) (UniProt P28482)
MAPK13 (human) = MAPK13 (human) (UniProt O15264)
Chain of MAPK13 (human) (O15264 whole entry, looked up): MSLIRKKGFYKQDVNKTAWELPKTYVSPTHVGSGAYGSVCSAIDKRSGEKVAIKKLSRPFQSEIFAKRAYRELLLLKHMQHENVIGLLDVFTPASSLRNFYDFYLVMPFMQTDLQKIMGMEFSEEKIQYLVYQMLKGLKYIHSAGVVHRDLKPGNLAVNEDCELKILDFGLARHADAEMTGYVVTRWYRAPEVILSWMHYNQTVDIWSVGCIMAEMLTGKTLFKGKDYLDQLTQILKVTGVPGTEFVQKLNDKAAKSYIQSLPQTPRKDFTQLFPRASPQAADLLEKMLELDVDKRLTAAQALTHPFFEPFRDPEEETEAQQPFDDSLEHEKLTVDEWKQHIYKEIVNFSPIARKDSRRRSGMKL

MAPKAPK3 (human) = MAPKAPK3 (human) (UniProt Q16644)
MARK4 (human) = MARK4 (human) (UniProt Q96L34)
MELK (human) = MELK (human) (UniProt Q14680)
Chain of MELK (human) (Q14680 whole entry, looked up): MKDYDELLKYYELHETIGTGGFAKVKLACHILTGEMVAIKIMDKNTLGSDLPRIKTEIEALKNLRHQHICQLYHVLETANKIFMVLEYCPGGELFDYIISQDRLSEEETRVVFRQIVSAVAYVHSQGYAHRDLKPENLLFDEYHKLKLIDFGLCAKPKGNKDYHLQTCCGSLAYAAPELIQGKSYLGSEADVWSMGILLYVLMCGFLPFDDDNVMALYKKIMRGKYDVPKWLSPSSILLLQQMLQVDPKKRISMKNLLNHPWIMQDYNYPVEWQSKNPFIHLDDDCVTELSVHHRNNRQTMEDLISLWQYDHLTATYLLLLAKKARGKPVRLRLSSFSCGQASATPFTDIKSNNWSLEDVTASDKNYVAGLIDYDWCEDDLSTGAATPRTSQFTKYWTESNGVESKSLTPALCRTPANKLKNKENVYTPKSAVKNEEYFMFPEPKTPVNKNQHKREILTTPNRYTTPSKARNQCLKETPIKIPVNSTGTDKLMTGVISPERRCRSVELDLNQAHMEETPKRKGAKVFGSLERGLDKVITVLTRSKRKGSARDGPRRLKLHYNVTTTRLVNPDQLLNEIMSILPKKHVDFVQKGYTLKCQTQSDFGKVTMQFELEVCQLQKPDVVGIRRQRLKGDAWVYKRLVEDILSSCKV

MINK1 (human) = MINK1 (human) (UniProt Q8N4C8)
Chain of MINK1 (human) (Q8N4C8 whole entry, looked up): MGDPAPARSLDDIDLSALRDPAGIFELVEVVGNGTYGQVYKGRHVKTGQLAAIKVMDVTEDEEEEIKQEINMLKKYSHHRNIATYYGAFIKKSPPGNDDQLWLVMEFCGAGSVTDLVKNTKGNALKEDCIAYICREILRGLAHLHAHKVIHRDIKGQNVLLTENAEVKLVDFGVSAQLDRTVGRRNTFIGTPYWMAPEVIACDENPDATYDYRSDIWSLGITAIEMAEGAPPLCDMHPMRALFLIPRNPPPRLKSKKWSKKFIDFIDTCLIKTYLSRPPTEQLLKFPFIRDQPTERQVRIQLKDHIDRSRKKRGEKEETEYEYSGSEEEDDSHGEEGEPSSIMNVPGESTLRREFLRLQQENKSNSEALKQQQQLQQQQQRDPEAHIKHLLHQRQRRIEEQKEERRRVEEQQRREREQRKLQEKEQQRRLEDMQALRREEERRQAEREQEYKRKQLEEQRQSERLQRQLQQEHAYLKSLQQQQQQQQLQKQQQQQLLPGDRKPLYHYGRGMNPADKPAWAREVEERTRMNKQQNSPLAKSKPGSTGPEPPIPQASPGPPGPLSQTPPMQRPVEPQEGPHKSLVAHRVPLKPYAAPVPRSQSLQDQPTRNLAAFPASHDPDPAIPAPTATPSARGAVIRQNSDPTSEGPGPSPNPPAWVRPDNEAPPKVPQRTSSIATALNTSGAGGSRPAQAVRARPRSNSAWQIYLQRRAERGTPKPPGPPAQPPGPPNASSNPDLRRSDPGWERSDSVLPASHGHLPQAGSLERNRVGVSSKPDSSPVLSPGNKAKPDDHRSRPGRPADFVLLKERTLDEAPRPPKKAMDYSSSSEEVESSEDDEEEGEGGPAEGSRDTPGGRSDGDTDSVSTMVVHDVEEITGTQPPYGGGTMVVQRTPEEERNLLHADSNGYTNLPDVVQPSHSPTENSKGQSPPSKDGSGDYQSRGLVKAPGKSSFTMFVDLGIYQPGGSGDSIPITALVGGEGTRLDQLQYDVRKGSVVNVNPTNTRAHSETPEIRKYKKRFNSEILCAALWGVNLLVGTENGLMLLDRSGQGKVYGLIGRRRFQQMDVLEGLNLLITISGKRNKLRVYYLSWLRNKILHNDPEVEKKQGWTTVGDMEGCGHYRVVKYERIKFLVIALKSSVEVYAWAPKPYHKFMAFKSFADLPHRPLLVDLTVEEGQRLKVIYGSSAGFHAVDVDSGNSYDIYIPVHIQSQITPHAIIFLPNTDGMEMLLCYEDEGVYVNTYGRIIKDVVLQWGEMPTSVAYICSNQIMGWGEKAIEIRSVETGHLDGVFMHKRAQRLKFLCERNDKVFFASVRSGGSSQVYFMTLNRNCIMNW

MKNK1 (human) = MKNK1 (human) (UniProt Q9BUB5)
MKNK2 (human) = MKNK2 (human) (UniProt Q9HBH9)
NTRK1 (human) = NTRK1 (human) (UniProt P04629)
PHKG1 (human) = PHKG1 (human) (UniProt Q16816)
PRKAA1 or PRKAA2 (rat) = settings: accession and sequence are those of the human protein
PRKACA (human) = PRKACA (human) (UniProt P17612)
PRKCZ (human) = PRKCZ (human) (UniProt Q05513)
ROCK2 (rat) = settings: accession and sequence are those of the human protein
RPS6KA1 KD1 KD2 (human) = RPS6KA1 KD1 KD2 (human) (UniProt Q15418)
Chain of RPS6KA1 KD1 KD2 (human) (Q15418 whole entry, looked up): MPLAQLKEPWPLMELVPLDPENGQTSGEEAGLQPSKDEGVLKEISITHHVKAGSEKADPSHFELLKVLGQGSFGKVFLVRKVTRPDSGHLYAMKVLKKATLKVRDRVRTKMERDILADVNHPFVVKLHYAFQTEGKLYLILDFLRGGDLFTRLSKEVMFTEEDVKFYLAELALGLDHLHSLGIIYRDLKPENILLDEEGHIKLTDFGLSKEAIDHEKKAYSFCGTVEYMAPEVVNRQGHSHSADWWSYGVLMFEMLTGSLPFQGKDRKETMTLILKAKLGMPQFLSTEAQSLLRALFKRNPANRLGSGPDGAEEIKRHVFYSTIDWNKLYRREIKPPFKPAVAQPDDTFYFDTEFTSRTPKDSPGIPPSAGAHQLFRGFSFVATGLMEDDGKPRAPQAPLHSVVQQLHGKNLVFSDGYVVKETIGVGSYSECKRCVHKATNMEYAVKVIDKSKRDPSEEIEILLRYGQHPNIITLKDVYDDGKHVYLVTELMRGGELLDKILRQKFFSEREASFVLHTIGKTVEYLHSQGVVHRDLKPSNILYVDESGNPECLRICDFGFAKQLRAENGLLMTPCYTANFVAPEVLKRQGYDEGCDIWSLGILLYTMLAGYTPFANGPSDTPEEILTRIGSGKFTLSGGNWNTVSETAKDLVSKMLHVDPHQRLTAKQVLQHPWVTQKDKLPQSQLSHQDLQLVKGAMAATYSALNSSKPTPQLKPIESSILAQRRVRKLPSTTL

SRC (human) = SRC (human) (UniProt P12931)
[1] = molecular target: STK11 CAB39 STRADA (human) (UniProt Q9Y376+Q7RTN6+Q15831)
TTK (human) = TTK (human) (UniProt P33981)
Chain of TTK (human) (P33981 whole entry, looked up): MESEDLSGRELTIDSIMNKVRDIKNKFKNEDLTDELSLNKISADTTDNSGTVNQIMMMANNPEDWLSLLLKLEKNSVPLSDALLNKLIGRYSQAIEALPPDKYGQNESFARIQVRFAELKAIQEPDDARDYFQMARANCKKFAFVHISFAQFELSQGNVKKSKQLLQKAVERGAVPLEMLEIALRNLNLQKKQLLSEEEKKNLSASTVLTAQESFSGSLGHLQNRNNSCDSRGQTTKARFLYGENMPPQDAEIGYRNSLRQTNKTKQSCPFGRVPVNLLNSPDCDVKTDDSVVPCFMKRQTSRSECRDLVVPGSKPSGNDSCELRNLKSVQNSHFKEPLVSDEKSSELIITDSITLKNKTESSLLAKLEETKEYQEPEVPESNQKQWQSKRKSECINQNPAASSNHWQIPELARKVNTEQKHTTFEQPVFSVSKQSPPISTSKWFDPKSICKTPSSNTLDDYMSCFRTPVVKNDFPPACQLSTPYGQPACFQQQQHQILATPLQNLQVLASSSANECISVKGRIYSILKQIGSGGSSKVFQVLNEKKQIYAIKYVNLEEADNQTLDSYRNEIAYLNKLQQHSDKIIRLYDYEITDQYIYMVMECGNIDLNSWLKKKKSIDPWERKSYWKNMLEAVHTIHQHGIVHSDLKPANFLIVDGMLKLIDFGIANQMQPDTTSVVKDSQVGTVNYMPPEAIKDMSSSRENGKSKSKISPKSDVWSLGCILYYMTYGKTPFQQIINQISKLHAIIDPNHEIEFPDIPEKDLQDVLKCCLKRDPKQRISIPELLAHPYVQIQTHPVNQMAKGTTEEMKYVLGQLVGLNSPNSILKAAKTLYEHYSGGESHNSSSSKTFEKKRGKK

MYLK (human) = MYLK (human) (UniProt Q15746)

## NS(=O)(=O)OC[C@@H]1C[C@@H](n2ccc3c(N[C@H]4CCc5ccccc54)ncnc32)C[C@@H]1O
AURKB (human); compound 10.0 µM
  residual activity: 93%
CDK2 CCNA2 (human); compound 1.0 µM
  residual activity: 84%
CDK2 CCNA2 (human); compound 10.0 µM
  residual activity: 90%
CHEK2 (human); compound 10.0 µM
  residual activity: 67%
CSK (human); compound 1.0 µM
  residual activity: 78%
CSNK2A1 (human); compound 1.0 µM
  residual activity: 80%
CSNK2A1 (human); compound 10.0 µM
  residual activity: 88%
DAPK1 (human); compound 1.0 µM
  residual activity: 110%
DAPK1 (human); compound 10.0 µM
  residual activity: 113%
EEF2K (human); compound 1.0 µM
  residual activity: 100%
EEF2K (human); compound 10.0 µM
  residual activity: 107%
EPHB3 (human); compound 10.0 µM
  residual activity: 129%
ERBB4 (human); compound 1.0 µM
  residual activity: 110%
ERBB4 (human); compound 10.0 µM
  residual activity: 116%
FGFR1 (human); compound 10.0 µM
  residual activity: 126%
GSK3B (human); compound 1.0 µM
  residual activity: 93%
GSK3B (human); compound 10.0 µM
  residual activity: 98%
IKBKB (human); compound 1.0 µM
  residual activity: 100%
IKBKB (human); compound 10.0 µM
  residual activity: 96%
INSRR (human); compound 1.0 µM
  residual activity: 87%
INSRR (human); compound 10.0 µM
  residual activity: 83%
LCK (mouse); compound 1.0 µM
  residual activity: 98%
LCK (mouse); compound 10.0 µM
  residual activity: 110%
MAP2K2 (human); compound 1.0 µM
  residual activity: 104%
MAP2K2 (human); compound 10.0 µM
  residual activity: 99%
MAP3K9 (human); compound 1.0 µM
  residual activity: 82%
MAP3K9 (human); compound 10.0 µM
  residual activity: 88%
MAPK1 (human); compound 10.0 µM
  residual activity: 89%
MAPK13 (human); compound 1.0 µM
  residual activity: 92%
MAPK13 (human); compound 10.0 µM
  residual activity: 90%
MAPKAPK3 (human); compound 1.0 µM
  residual activity: 103%
MAPKAPK3 (human); compound 10.0 µM
  residual activity: 101%
MARK4 (human); compound 1.0 µM
  residual activity: 93%
MARK4 (human); compound 10.0 µM
  residual activity: 103%
MELK (human); compound 1.0 µM
  residual activity: 87%
MELK (human); compound 10.0 µM
  residual activity: 91%
MINK1 (human); compound 1.0 µM
  residual activity: 93%
MINK1 (human); compound 10.0 µM
  residual activity: 96%
MKNK1 (human); compound 1.0 µM
  residual activity: 104%
MKNK1 (human); compound 10.0 µM
  residual activity: 92%
MKNK2 (human); compound 10.0 µM
  residual activity: 108%
NTRK1 (human); compound 10.0 µM
  residual activity: 92%
PHKG1 (human); compound 1.0 µM
  residual activity: 109%
PHKG1 (human); compound 10.0 µM
  residual activity: 106%
PRKAA1 or PRKAA2 (rat); compound 1.0 µM
  residual activity: 96%
PRKAA1 or PRKAA2 (rat); compound 10.0 µM
  residual activity: 99%
PRKACA (human); compound 1.0 µM
  residual activity: 73%
PRKACA (human); compound 10.0 µM
  residual activity: 81%
PRKCZ (human); compound 10.0 µM
  residual activity: 96%
ROCK2 (rat); compound 10.0 µM
  residual activity: 81%
RPS6KA1 KD1 KD2 (human); compound 1.0 µM
  residual activity: 96%
RPS6KA1 KD1 KD2 (human); compound 10.0 µM
  residual activity: 95%
SRC (human); compound 10.0 µM
  residual activity: 113%
[1]; compound 1.0 µM
  residual activity: 127%
[1]; compound 10.0 µM
  residual activity: 104%
TTK (human); compound 1.0 µM
  residual activity: 86%
TTK (human); compound 10.0 µM
  residual activity: 98%

## COc1ccc(N(C(=O)Nc2c(C)cccc2C)c2cc(Nc3ccc(N4CCN(C)CC4)cc3)ncn2)c(OC)c1
AURKB (human); compound 0.01 µM
  residual activity: 93%
AURKB (human); compound 0.1 µM
  residual activity: 92%
AURKB (human); compound 1.0 µM
  residual activity: 91%
CDK2 CCNA2 (human); compound 0.01 µM
  residual activity: 120%
CDK2 CCNA2 (human); compound 0.1 µM
  residual activity: 121%
CDK2 CCNA2 (human); compound 1.0 µM
  residual activity: 106%
CHEK2 (human); compound 0.01 µM
  residual activity: 89%
CHEK2 (human); compound 0.1 µM
  residual activity: 75%
CHEK2 (human); compound 1.0 µM
  residual activity: 34%
CSK (human); compound 0.01 µM
  residual activity: 119%
CSK (human); compound 0.1 µM
  residual activity: 101%
CSK (human); compound 1.0 µM
  residual activity: 38%
CSNK2A1 (human); compound 0.01 µM
  residual activity: 98%
CSNK2A1 (human); compound 0.1 µM
  residual activity: 100%
CSNK2A1 (human); compound 1.0 µM
  residual activity: 100%
DAPK1 (human); compound 0.1 µM
  residual activity: 88%
DAPK1 (human); compound 1.0 µM
  residual activity: 96%
EEF2K (human); compound 0.1 µM
  residual activity: 108%
EEF2K (human); compound 1.0 µM
  residual activity: 89%
EPHB3 (human); compound 0.01 µM
  residual activity: 108%
EPHB3 (human); compound 0.1 µM
  residual activity: 61%
EPHB3 (human); compound 1.0 µM
  residual activity: 18%
ERBB4 (human); compound 0.01 µM
  residual activity: 90%
ERBB4 (human); compound 1.0 µM
  residual activity: 18%
FGFR1 (human); compound 0.01 µM
  residual activity: 102%
FGFR1 (human); compound 0.1 µM
  residual activity: 34%
FGFR1 (human); compound 1.0 µM
  residual activity: 2%
GSK3B (human); compound 1.0 µM
  residual activity: 88%
IKBKB (human); compound 0.01 µM
  residual activity: 83%
IKBKB (human); compound 0.1 µM
  residual activity: 95%
IKBKB (human); compound 1.0 µM
  residual activity: 99%
INSRR (human); compound 0.01 µM
  residual activity: 113%
INSRR (human); compound 0.1 µM
  residual activity: 112%
INSRR (human); compound 1.0 µM
  residual activity: 107%
LCK (mouse); compound 0.01 µM
  residual activity: 63%
LCK (mouse); compound 0.1 µM
  residual activity: 54%
LCK (mouse); compound 1.0 µM
  residual activity: 47%
MAP2K2 (human); compound 0.01 µM
  residual activity: 101%
MAP2K2 (human); compound 0.1 µM
  residual activity: 96%
MAP2K2 (human); compound 1.0 µM
  residual activity: 85%
MAP3K9 (human); compound 0.01 µM
  residual activity: 101%
MAP3K9 (human); compound 0.1 µM
  residual activity: 97%
MAP3K9 (human); compound 1.0 µM
  residual activity: 42%
MAPK1 (human); compound 0.01 µM
  residual activity: 103%
MAPK1 (human); compound 0.1 µM
  residual activity: 110%
MAPK1 (human); compound 1.0 µM
  residual activity: 109%
MAPK13 (human); compound 0.01 µM
  residual activity: 102%
MAPK13 (human); compound 0.1 µM
  residual activity: 97%
MAPK13 (human); compound 1.0 µM
  residual activity: 98%
MAPKAPK3 (human); compound 0.01 µM
  residual activity: 96%
MAPKAPK3 (human); compound 0.1 µM
  residual activity: 90%
MAPKAPK3 (human); compound 1.0 µM
  residual activity: 75%
MARK4 (human); compound 0.01 µM
  residual activity: 120%
MARK4 (human); compound 0.1 µM
  residual activity: 101%
MARK4 (human); compound 1.0 µM
  residual activity: 67%
MELK (human); compound 0.01 µM
  residual activity: 105%
MELK (human); compound 0.1 µM
  residual activity: 93%
MELK (human); compound 1.0 µM
  residual activity: 71%
MINK1 (human); compound 0.01 µM
  residual activity: 94%
MINK1 (human); compound 0.1 µM
  residual activity: 76%
MINK1 (human); compound 1.0 µM
  residual activity: 18%
MKNK1 (human); compound 0.01 µM
  residual activity: 109%
MKNK1 (human); compound 0.1 µM
  residual activity: 116%
MKNK1 (human); compound 1.0 µM
  residual activity: 112%
MKNK2 (human); compound 0.01 µM
  residual activity: 107%
MKNK2 (human); compound 0.1 µM
  residual activity: 107%
MKNK2 (human); compound 1.0 µM
  residual activity: 102%
MYLK (human); compound 0.01 µM
  residual activity: 99%
MYLK (human); compound 0.1 µM
  residual activity: 89%
MYLK (human); compound 1.0 µM
  residual activity: 91%
NTRK1 (human); compound 0.01 µM
  residual activity: 98%
NTRK1 (human); compound 1.0 µM
  residual activity: 89%
PHKG1 (human); compound 0.01 µM
  residual activity: 125%
PHKG1 (human); compound 0.1 µM
  residual activity: 104%
PHKG1 (human); compound 1.0 µM
  residual activity: 107%
PRKACA (human); compound 0.01 µM
  residual activity: 91%
PRKACA (human); compound 0.1 µM
  residual activity: 96%
PRKACA (human); compound 1.0 µM
  residual activity: 79%
PRKCZ (human); compound 0.01 µM
  residual activity: 97%
PRKCZ (human); compound 0.1 µM
  residual activity: 104%
PRKCZ (human); compound 1.0 µM
  residual activity: 102%
ROCK2 (rat); compound 0.01 µM
  residual activity: 90%
ROCK2 (rat); compound 1.0 µM
  residual activity: 68%
RPS6KA1 KD1 KD2 (human); compound 0.01 µM
  residual activity: 106%
RPS6KA1 KD1 KD2 (human); compound 0.1 µM
  residual activity: 91%
RPS6KA1 KD1 KD2 (human); compound 1.0 µM
  residual activity: 38%
SRC (human); compound 0.01 µM
  residual activity: 45%
SRC (human); compound 0.1 µM
  residual activity: 9%
SRC (human); compound 1.0 µM
  residual activity: 3%
[1]; compound 0.01 µM
  residual activity: 108%
[1]; compound 0.1 µM
  residual activity: 106%
[1]; compound 1.0 µM
  residual activity: 96%
TTK (human); compound 0.01 µM
  residual activity: 100%
TTK (human); compound 0.1 µM
  residual activity: 92%
TTK (human); compound 1.0 µM
  residual activity: 75%
